Assay results published in patent US20070190582A1, “Platelet surface PF4 antigenic complexes as a diagnostic indicator in heparin-induced thrombocytopenia” (priority 2005, published 2007).

T1: hPF4 bound to surface GAGs of murine platelets (Homo sapiens, UniProt P02776)
T1 construct: made in house; host or cells: E. coli BL21DE30 pLysS, pT7-7 plasmid
T1 sequence (P02776 32-101): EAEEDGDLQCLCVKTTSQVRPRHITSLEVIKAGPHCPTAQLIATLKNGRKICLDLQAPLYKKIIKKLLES

B1: heparinase 1: heparinase I (Sigma), enzyme used to pretreat platelets (protein, UniProt Q05819 22-384, looked up)
Heparin lyase I: QQKKSGNIPYRVNVQADSAKQKAIIDNKWVAVGINKPYALQYDDKLRFNGKPSYRFELKAEDNSLEGYAAGETKGRTELSYSYATTNDFKKFPPSVYQNAQKLKTVYHYGKGICEQGSSRSYTFSVYIPSSFPDNATTIFAQWHGAPSRTLVATPEGEIKTLSIEEFLALYDRMIFKKNIAHDKVEKKDKDGKITYVAGKPNGWKVEQGGYPTLAFGFSKGYFYIKANSDRQWLTDKADRNNANPENSEVMKPYSSEYKTSTIAYKMPFAQFPKDCWITFDVAIDWTKYGKEANTILKPGKLDVMMTYTKNKKPQKAHIVNQQEILIGRNDDDGYYFKFGIYRVGNSTVPVTYNLSGYSETAR

How the values were obtained:
[1] = test system: hPF4/FcγRIIA double transgenic mice given KKO; assay: Therapeutic intervention in the murine HIT model (platelet counts after KKO); assay type: in vivo, mouse
Method: Transgenic mice expressing different amounts of hPF4 mRNA per platelet have been described previously (26). Three lines bearing 1, 6 and 22 copy numbers of the human PF4 gene/haplotype were used. […] Transgenic mice expressing FcγRIIA were generously provided by Steven McKenzie, Thomas Jefferson University (30) and crossbred with these hPF4 mice. All murine lines were backcrossed onto the C57BL/6J background>8 times. Genomic makeup of mice was determined by PCR analysis using oligonucleotide primers described previously (26,30). Controls included littermates transgenic for hPF4 or FcγRIIA only. Mice were 6-10 weeks of age at the time of study. Total platelet hPF4 levels in the various transgenic hPF4 lines were determined using an Asserachrom PF4 kit (Diagnostica Stago) as per the manufacturer using recombinant hPF4 as the standard. Mouse blood was obtained by retroorbital puncture. The plate was read at 450 nm in a THERMOmax microplate reader (Molecular Devices). Measurements of surface KKO binding in vivo in WT and the hPF4 transgenic mice were determined after IV injection of 20 μg of FITC-labeled KKO in 200 μL of sterile PBS via the tail vein followed by withdrawal of 50 μL of blood from the retroorbital plexus 10 min later. The blood was coimmunostained for CD41, and KKO binding to CD41-positive cells was estimated by flow cytometry. In other studies, KKO was injected intraperitoneally (IP) in a final volume of 200 μL diluted with sterile PBS. Porcine heparin (200 μL of 100 U/mL stock; Abbott Laboratories) was injected subcutaneously (SQ) in a subgroup of studied animals beginning at 24 hrs for 4 consecutive days. Complete blood counts were measured in 50 μl of whole blood obtained by retroorbital puncture into Safe-T-Fill® minicapillary blood collection tubes (Kabe Labortechnik). Platelets were enumerated using an automatic cell counter (HEMAVET, Drew Scientific). In the therapeutic intervention studies, either porcine heparin (100 U/kg) or protamine sulfate (2 mg/kg) were injected IV over 2 mins. KKO (200 μg) was given IP 1 hr later (zero time point). Injection of heparin or protamine was repeated 21 and 45 hr later. Blood counts were determined as above.
Platelet counts between groups were compared using the Student's t-test. Statistical analyses were performed using Graph Pad Prism (Graphpad Software). Differences were considered significant at a p value of <0.05.

[2] = biological target: T1, hPF4 bound to surface GAGs of murine platelets; assay: KKO binding to murine platelets in the presence of hPF4 (flow cytometry); parameters: species or system mouse; settings: mPF4 null platelets, enzyme 0-5 U/ml, 37° C., 30 min
Method: Studies were performed using human platelets or platelets from WT and transgenic mice (see below for the description of the mice). Human blood was collected after informed consent from healthy, aspirin-free volunteers in acid citrate dextrose (ACD, pH 4.5, 10:1, vol/vol) under a protocol approved by the Institutional Review Board for Studies involving Human Subjects of the Children's Hospital of Philadelphia. All studies involving mice were approved by the same Institution's Institute Animal Care and Use Committee. Blood was centrifuged at 200 g for 15 min at room temperature (RT) to generate platelet-rich plasma (PRP). PGE1 (final concentration 1 μg/mL, Sigma) was added to the PRP to prevent spontaneous platelet activation. […] Total immunodetectable platelet hPF4 was determined using murine platelets completely deficient in murine PF4 (mPF4 null (29)). […] Autoradiograpic bands over the linear range of exposure were analyzed on a UMAX Vista-58 scanner, and the data analyzed by developing a histogram of the calculated density using the NIH program ImageJ (rsb.info.nih.gov). Total surface PF4 binding was also detected using mPF4 null platelets after paraformaldehyde crosslinking, as above. […] FITC-labeled KKO (50 μg/mL) was added for 15 min, the sample was diluted 1/10 with Tyrode's buffer and antibody binding was measured by flow cytometry as above. […]

[3] = hPF4Mid/FcγRIIA+ mice, heparin 100 U/kg or protamine sulfate 2 mg/kg IV 1 hr before 200 μg KKO IP

Molecule | Effect on KKO-induced thrombocytopenia ([1]; hPF4High/FcγRIIA+ mice, heparin 100 U/kg or protamine sulfate 2 mg/kg IV) | Platelet counts versus mice receiving antibody alone at 24 and 48 hr ([1]; hPF4High/FcγRIIA+ mice, protamine sulfate 2 mg/kg IV) | Effect on KKO-induced thrombocytopenia at 3 hr [1, 3] | Effect on KKO-induced thrombocytopenia at 24 hr [1, 3] | Platelet counts after repeat doses on the second and third days ([1]; hPF4Mid/FcγRIIA+ mice, repeat at 21 and 45 hr) | Effect of pretreating platelets on KKO binding [2]
protamine sulfate | retained its efficacy | significantly higher | prevented thrombocytopenia | decreased the severity of thrombocytopenia | maintained platelet counts above the level in mice that had received KKO alone | 
B1 |  |  |  |  |  | not heparinase 1 alone (data not shown), decreased KKO binding
